From patent US20250275540A1, “USE OF PROTOPORPHYRINOGEN OXIDASE” (BEIJING DABEINONG BIOTECHNOLOGY CO., LTD., priority 2022, published 2025)

Test system: transgenic maize plants
Test: Detection of the herbicide tolerance of the transgenic maize plants
Format: in vivo
Settings: for The grade of pesticide damage/plant: 0 / The grade of pesticide damage/plant: 1 / The grade of pesticide damage/plant: 2 / The grade of pesticide damage/plant: 3: 7 DAT
Text: The transformed Arabidopsis thaliana T1 plants were initially selected using glufosinate herbicide. The Arabidopsis thaliana T1 plants (PPOA-01) into which the PPOA-01 nucleotide sequence was introduced, the Arabidopsis thaliana T1 plants (PPOB-01) into which the PPOB-01 nucleotide sequence was introduced, the Arabidopsis thaliana T1 plants (PPOC-01) into which the PPOC-01 nucleotide sequence was introduced, the Arabidopsis thaliana T1 plants (PPOD-01) into which the PPOD-01 nucleotide sequence was introduced, the Arabidopsis thaliana T1 plants (PPOE-01) into which the PPOE-01 nucleotide sequence was introduced, the Arabidopsis thaliana T1 plants (PPOF-01) into which the PPOF-01 nucleotide sequence was introduced, the Arabidopsis thaliana T1 plants (PPO-AP-01) into which the PPO-AP-01 nucleotide sequence was introduced, and the Arabidopsis thaliana T1 plants (control vector) into which the control vector was introduced, the wild-type Arabidopsis thaliana plants (CK) (with 24 plants being included in each genotype) (18 days after sowing) were sprayed with saflufenacil at three concentrations (25 g ai/ha (one-fold field concentration, 1×), 100 g ai/ha (four-fold field concentration, 4×), and 0 g ai/ha (water, 0×)), oxyfluorfen at three concentrations (180 g ai/ha (one-fold field concentration, 1×), 720 g ai/ha (four-fold field concentration, 4×), and 0 g ai/ha (water, 0×)), and flumioxazin at three concentrations (60 g ai/ha (one-fold field concentration, 1×), 240 g ai/ha (four-fold field concentration, 4×), and 0 g ai/ha (water, 0×) to determine the tolerance of Arabidopsis thaliana to the herbicides. After 7 days of spraying (7 DAT), the damage level of each plant caused by the herbicide was evaluated according to the average of the damage levels (%) of plants (the average of the damage levels (%) of plants=the injured leaf area/the total leaf area×100%), i.e., the grade of pesticide damage: grade 0 means that the growth status of plants is essentially consistent with those sprayed with the blank solvent (water); grade 1 means that the average of the damage levels of plants is less than 10%; grade 2 means that the average of the damage levels of plants is greater than 10%; and grade 3 means that the average of the damage levels of plants is 100%. The plants having a growth status falling within grades 0 and 1 are classified as highly resistant plants; those having a growth status falling within grade 2 are classified as poorly resistant plants; and those having a growth status falling within grade 3 are classified as non-resistant plants.
The maize plants into which the PPOA-02 nucleotide sequence was introduced, the maize plants into which the PPOB-02 nucleotide sequence was introduced, the maize plants into which the PPOC-02 nucleotide sequence was introduced, the maize plants into which the PPOD-02 nucleotide sequence was introduced, the maize plants into which the PPOE-02 nucleotide sequence was introduced, the maize plants into which the PPOF-02 nucleotide sequence was introduced, the maize plants into which the PPO-AP-02 nucleotide sequence was introduced, the maize plants (control vector) into which the control vector was introduced, and the wild-type maize plants (CK) (with 16 plants being included in each genotype) (18 days after sowing) were taken and sprayed with saflufenacil at three concentrations (50 g ai/ha (two-fold field concentration, 2×), 100 g ai/ha (four-fold field concentration, 4×), and 0 g ai/ha (water, 0×)), oxyfluorfen at three concentrations (360 g ai/ha (two-fold field concentration, 2×), 720 g ai/ha (four-fold field concentration, 4×), and 0 g ai/ha (water, 0×), and flumioxazin at three concentrations (120 g ai/ha (two-fold field concentration, 2×), 240 g ai/ha (four-fold field concentration, 4×), and 0 g ai/ha (water, 0×) to determine the tolerance of maize plants to the herbicides. […]

[1] = genotype Control vector, 360 g ai/ha
[2] = genotype Control vector, 720 g ai/ha
[3] = genotype PPO-AP-02, 360 g ai/ha
[4] = genotype PPO-AP-02, 720 g ai/ha

CCOc1cc(Oc2ccc(C(F)(F)F)cc2Cl)ccc1[N+](=O)[O-] [oxyfluorfen, 2-chloro-1-(3-ethoxy-4-nitrophenoxy)-4-trifluoromethylbenzene]
The grade of pesticide damage/plant: 0 (genotype CK, 360 g ai/ha): 0 plant
The grade of pesticide damage/plant: 1 (genotype CK, 360 g ai/ha): 0 plant
The grade of pesticide damage/plant: 2 (genotype CK, 360 g ai/ha): 0 plant
The grade of pesticide damage/plant: 3 (genotype CK, 360 g ai/ha): 16 plant
The grade of pesticide damage/plant: 0 (genotype CK, 720 g ai/ha): 0 plant
The grade of pesticide damage/plant: 1 (genotype CK, 720 g ai/ha): 0 plant
The grade of pesticide damage/plant: 2 (genotype CK, 720 g ai/ha): 0 plant
The grade of pesticide damage/plant: 3 (genotype CK, 720 g ai/ha): 16 plant
The grade of pesticide damage/plant: 0 [1]: 0 plant
The grade of pesticide damage/plant: 1 [1]: 0 plant
The grade of pesticide damage/plant: 2 [1]: 0 plant
The grade of pesticide damage/plant: 3 [1]: 16 plant
The grade of pesticide damage/plant: 0 [2]: 0 plant
The grade of pesticide damage/plant: 1 [2]: 0 plant
The grade of pesticide damage/plant: 2 [2]: 0 plant
The grade of pesticide damage/plant: 3 [2]: 16 plant
The grade of pesticide damage/plant: 0 [3]: 0 plant
The grade of pesticide damage/plant: 1 [3]: 0 plant
The grade of pesticide damage/plant: 2 [3]: 8 plant
The grade of pesticide damage/plant: 3 [3]: 8 plant
The grade of pesticide damage/plant: 0 [4]: 0 plant
The grade of pesticide damage/plant: 1 [4]: 0 plant
The grade of pesticide damage/plant: 2 [4]: 0 plant
The grade of pesticide damage/plant: 3 [4]: 16 plant
tolerance to the herbicide (in words) (genotype PPO-AP-02, four-fold field concentration): no tolerance
share of the plants that exhibited no tolerance (genotype PPO-AP-02, two-fold field concentration): about 50%
The grade of pesticide damage/plant: 0 (genotype PPOA-02, 360 g ai/ha): 16 plant
The grade of pesticide damage/plant: 1 (genotype PPOA-02, 360 g ai/ha): 0 plant
The grade of pesticide damage/plant: 2 (genotype PPOA-02, 360 g ai/ha): 0 plant
The grade of pesticide damage/plant: 3 (genotype PPOA-02, 360 g ai/ha): 0 plant
The grade of pesticide damage/plant: 0 (genotype PPOA-02, 720 g ai/ha): 16 plant
The grade of pesticide damage/plant: 1 (genotype PPOA-02, 720 g ai/ha): 0 plant
The grade of pesticide damage/plant: 2 (genotype PPOA-02, 720 g ai/ha): 0 plant
The grade of pesticide damage/plant: 3 (genotype PPOA-02, 720 g ai/ha): 0 plant
The grade of pesticide damage/plant: 0 (genotype PPOB-02, 360 g ai/ha): 16 plant
The grade of pesticide damage/plant: 1 (genotype PPOB-02, 360 g ai/ha): 0 plant
The grade of pesticide damage/plant: 2 (genotype PPOB-02, 360 g ai/ha): 0 plant
The grade of pesticide damage/plant: 3 (genotype PPOB-02, 360 g ai/ha): 0 plant
The grade of pesticide damage/plant: 0 (genotype PPOB-02, 720 g ai/ha): 16 plant
The grade of pesticide damage/plant: 1 (genotype PPOB-02, 720 g ai/ha): 0 plant
The grade of pesticide damage/plant: 2 (genotype PPOB-02, 720 g ai/ha): 0 plant
The grade of pesticide damage/plant: 3 (genotype PPOB-02, 720 g ai/ha): 0 plant
The grade of pesticide damage/plant: 0 (genotype PPOC-02, 360 g ai/ha): 16 plant
The grade of pesticide damage/plant: 1 (genotype PPOC-02, 360 g ai/ha): 0 plant
The grade of pesticide damage/plant: 2 (genotype PPOC-02, 360 g ai/ha): 0 plant
The grade of pesticide damage/plant: 3 (genotype PPOC-02, 360 g ai/ha): 0 plant
The grade of pesticide damage/plant: 0 (genotype PPOC-02, 720 g ai/ha): 16 plant
The grade of pesticide damage/plant: 1 (genotype PPOC-02, 720 g ai/ha): 0 plant
The grade of pesticide damage/plant: 2 (genotype PPOC-02, 720 g ai/ha): 0 plant
The grade of pesticide damage/plant: 3 (genotype PPOC-02, 720 g ai/ha): 0 plant
The grade of pesticide damage/plant: 0 (genotype PPOD-02, 360 g ai/ha): 16 plant
The grade of pesticide damage/plant: 1 (genotype PPOD-02, 360 g ai/ha): 0 plant
The grade of pesticide damage/plant: 2 (genotype PPOD-02, 360 g ai/ha): 0 plant
The grade of pesticide damage/plant: 3 (genotype PPOD-02, 360 g ai/ha): 0 plant
The grade of pesticide damage/plant: 0 (genotype PPOD-02, 720 g ai/ha): 16 plant
The grade of pesticide damage/plant: 1 (genotype PPOD-02, 720 g ai/ha): 0 plant
The grade of pesticide damage/plant: 2 (genotype PPOD-02, 720 g ai/ha): 0 plant
The grade of pesticide damage/plant: 3 (genotype PPOD-02, 720 g ai/ha): 0 plant
The grade of pesticide damage/plant: 0 (genotype PPOE-02, 360 g ai/ha): 16 plant
The grade of pesticide damage/plant: 1 (genotype PPOE-02, 360 g ai/ha): 0 plant
The grade of pesticide damage/plant: 2 (genotype PPOE-02, 360 g ai/ha): 0 plant
The grade of pesticide damage/plant: 3 (genotype PPOE-02, 360 g ai/ha): 0 plant
The grade of pesticide damage/plant: 0 (genotype PPOE-02, 720 g ai/ha): 15 plant
The grade of pesticide damage/plant: 1 (genotype PPOE-02, 720 g ai/ha): 1 plant
The grade of pesticide damage/plant: 2 (genotype PPOE-02, 720 g ai/ha): 0 plant
The grade of pesticide damage/plant: 3 (genotype PPOE-02, 720 g ai/ha): 0 plant
The grade of pesticide damage/plant: 0 (genotype PPOF-02, 360 g ai/ha): 16 plant
The grade of pesticide damage/plant: 1 (genotype PPOF-02, 360 g ai/ha): 0 plant
The grade of pesticide damage/plant: 2 (genotype PPOF-02, 360 g ai/ha): 0 plant
The grade of pesticide damage/plant: 3 (genotype PPOF-02, 360 g ai/ha): 0 plant
The grade of pesticide damage/plant: 0 (genotype PPOF-02, 720 g ai/ha): 16 plant
The grade of pesticide damage/plant: 1 (genotype PPOF-02, 720 g ai/ha): 0 plant
The grade of pesticide damage/plant: 2 (genotype PPOF-02, 720 g ai/ha): 0 plant
The grade of pesticide damage/plant: 3 (genotype PPOF-02, 720 g ai/ha): 0 plant
tolerance to the herbicide (in words) (genotypes PPOA-02 to PPOF-02, four-fold field concentration): high-resistant tolerance
tolerance to the herbicide (in words) (genotypes PPOA-02 to PPOF-02, two-fold field concentration): high-resistant tolerance
